According to paper PMC10319141, “Imidazoquinolines with improved pharmacokinetic properties induce a high IFNα to TNFα ratio in vitro and in vivo” (Frontiers in Immunology, 2023):

Legend:
[1] = tested on: TNFα and IFNα in peripheral plasma; test: Cytokine induction after three consecutive daily s.c. treatments (Figure 6A, C); type: in vivo, mice; settings: in words; for type I Interferon concentrations in plasma after the second treatment: repeated daily s.c. treatment; for secretion of TNFα after repeated treatments in comparison with IMQ and RSQ: three daily s.c. treatments
Method: Cytokine concentrations in samples were quantified either by ELISA (hTNFα, R&D Systems; hIFNα, Mabtech) or cytometric bead arrays (CBA, LegendPlex mouse anti-virus response panel, BioLegend) according to the manufacturer’s instructions. CBAs were acquired on a ZE5 Cell Analyzer (Bio-Rad) and analyzed using the LegendPlex Software Suite (Qognit/BioLegend). Absorbance of ELISA-samples was quantified using a Versamax microplate reader (Molecular Devices).
(§1) Formulation. Test compounds were prepared for application in either 1% Tween 80, 9% PEG400 in ultrapure water (Biowest) (i.v., i.p., p.o. application) or 5 mM citric acid in 0.9% saline (Braun) (subcutaneous application). If compounds were administered subcutaneously, injections were carried out into the neck crease.
(§2) Collection of Samples. Mice were bled from the tail vein at various timepoints. Heparin (Sigma) or K2-EDTA (Sigma) was added to blood samples to a final […] concentration of 10-15 Unit or 5 mM. Plasma was generated by centrifugation at 6800xg for 8 min at 4°C and stored at -80°C until analyzed by ELISA or CBA. Animals were sacrificed after the indicated time points by CO2 inhalation. Heart blood and organs for compound quantification by HPLC-MS/MS were collected post mortem and stored at –20°C until extracted as described above.
(§3) Dotted lines indicate the time of repeated compound applications. (A) Cytokine levels in pooled tail plasma of mice from individual treatment groups (n=3 per pool and time point), error bars represent range of two replicate measurements. (B) Peripheral blood was collected from the tail vein before, 15, 30 60, 120, 240, 360 and 480 min after s.c. treatment. Compound concentration in peripheral plasma was analyzed by HPLC-MS/MS, data presented as mean ± SD.

[2] = Compound concentrations in organs and plasma after three consecutive daily s.c. treatments (Figure 6B, S7); type: in vivo, mice; settings: for compound plasma level at peak: s.c.; for concentration at 4 h / concentration at 28 h / concentration at 52 h: mouse, liver, sc, read-out: concentration in liver; for concentration at 4 h / concentration at 28 h / concentration at 52 h / levels in brain tissue / concentration in liver: repeated daily s.c. treatment; for levels in brain tissue: in words
Method: All samples were extracted with 3 or 6 volumes acetonitrile containing terbuthylazine as an internal standard (ACN) relative to either sample weight or volume. Liquid samples (plasma, culture medium, cell suspensions in stability experiments) were diluted in either 3 (culture medium, cell suspensions) or 6 (plasma) volumes ACN, pellet and blood samples were extracted by addition of ACN followed by sonication for 5 min. Organ samples were digested with 0.5 µg/mg Proteinase K (Genaxxon) for 1 h at 50°C before being homogenized using a Fastprep FP-24 5G instrument (MP-Biomedicals). Homogenates were diluted with 6 volumes ACN and homogenized again. All extracts were cleared by centrifugation at ~20.000xg for 10 min at 4°C.
Quantification of analytes was performed on an Agilent 1260/1290 Infinity system fitted with an Agilent C18 Poroshell 120 column (4.6 x 50 mm, 2.7 µm) coupled to a triple quadrupole Sciex API 4000 MS/MS detector. The mobile phase was composed of water containing 0.1% formic acid (eluent A) and acetonitrile containing 0.1% formic acid (eluent B). Gradient used was: 5% B for 0.5 min, to 100% B in 4.5 min, 100% B for 2 min, to 5% B in 0.5 min, 5% for 2.5 min. MS detection parameters are listed in SI Table S1 .
as §1, §2, §3
Samples were collected 4 h, 28 h and 52 h after s.c. treatment. Skin samples were sampled
at time points 4 h and 52 h. Compound concentrations were analyzed by HPLC-MS/MS, data

[3] = Stability in whole blood, U937 and RPMI; type: in vitro ADME, human; settings: 1 µM, 37°C, over 24 h; in words
Method: Human blood products used in the in vitro assays (for cell stimulation and stability) were obtained from the center for transfusion medicine in Tübingen, Germany (Zentrum für Klinische Transfusionmedizin Tübingen GmbH, (ethical approval number ZKT-FoPro202106-2305-01). Test compounds (1 µM) in either culture medium (RPMI-1640 medium containing 10% fetal bovine serum, 60 mg/l Penicillin G sodium salt and 100 mg/l Streptomycin sulfate (all Biowest)), human blood (diluted 1:1 with culture medium) or a suspension of 5x10^6 cells/ml U937 in culture medium were incubated at 37°C, 450 rpm on a shaking incubator. At the indicated time points 50 µL of blood, cell suspension or medium were collected and prepared for HPLC-MS/MS-Analysis as detailed below.
All samples were extracted with 3 or 6 volumes acetonitrile containing terbuthylazine as an internal standard (ACN) relative to either sample weight or volume. Liquid samples (plasma, culture medium, cell suspensions in stability experiments) were diluted in either 3 (culture medium, cell suspensions) or 6 (plasma) volumes ACN, pellet and blood samples were extracted by addition of ACN followed by sonication for 5 min. […]
Quantification of analytes was performed on an Agilent 1260/1290 Infinity system fitted with an Agilent C18 Poroshell 120 column (4.6 x 50 mm, 2.7 µm) coupled to a triple quadrupole Sciex API 4000 MS/MS detector. […]

[4] = day 1, 60 min after application
[5] = day 2, 60 min after application
[6] = day 3, 60 min after application

SMILES: CCCCc1nc2c(N)nc3ccccc3c2n1CCC1CCN(C(=O)CN(C)CC(=O)N(C)C2CC(C)OC(OC3C(C)C(OC4CC(C)(OC)C(O)C(C)O4)C(C)C(=O)OC(CC)C(C)(O)C(O)C(C)N(C)CC(C)CC3(C)O)C2O)CC1 (stereo not drawn) [A1-mac]
- type I Interferon concentrations in plasma after the second treatment [1]: at the limit of detection
- secretion of TNFα after repeated treatments in comparison with IMQ and RSQ [1]: remained low
- compound plasma level at peak [2, 4]: 755 nM
- compound plasma level at peak [2, 5]: 585 nM
- compound plasma level at peak [2, 6]: 639 nM
- concentration at 4 h ([2]; after 4 h): 2620 nM
- concentration at 28 h ([2]; after 28 h): 4460 nM
- concentration at 52 h ([2]; after 52 h): 6350 nM
- levels in brain tissue [2]: baseline or close to baseline levels
- stability in whole blood and cell based (U937) assays [3]: stable

SMILES: CCCCc1nc2c(N)nc3ccccc3c2n1CCC1CCNCC1 [A1]
- type I Interferon concentrations in plasma after the second treatment [1]: at the limit of detection
- secretion of TNFα after repeated treatments in comparison with IMQ and RSQ [1]: remained low
- compound plasma level at peak [2, 4]: 171 nM
- compound plasma level at peak [2, 5]: 85 nM
- compound plasma level at peak [2, 6]: 66 nM
- concentration at 4 h ([2]; after 4 h): 63 nM
- concentration at 28 h ([2]; after 28 h): 82 nM
- concentration at 52 h ([2]; after 52 h): 94 nM
- levels in brain tissue [2]: baseline or close to baseline levels

SMILES: CCCCc1nc2c(N)nc3ccccc3c2n1CC1CCN(C(=O)CN(C)CC(=O)N(C)[C@H]2C[C@@H](C)O[C@@H](O[C@@H]3[C@@H](C)[C@H](O[C@H]4C[C@@](C)(OC)[C@@H](O)[C@H](C)O4)[C@@H](C)C(=O)O[C@H](CC)[C@@](C)(O)[C@H](O)[C@@H](C)N(C)C[C@H](C)C[C@@]3(C)O)[C@@H]2O)CC1 [A2-mac]
- stability in whole blood and cell based (U937) assays [3]: stable

SMILES: CCOCc1nc2c(N)nc3ccccc3c2n1CC(C)(C)O [RSQ, Resiquimod, reference compound]
- concentration in liver ([2]; after 4 h): < LLOQ
- concentration in liver ([2]; after 28 h): < LLOQ
- concentration in liver ([2]; after 52 h): < LLOQ
- compound plasma level at peak [2, 4]: < LLOQ
- compound plasma level at peak [2, 5]: < LLOQ
- compound plasma level at peak [2, 6]: < LLOQ
- levels in brain tissue [2]: baseline or close to baseline levels
